Measured values from patent US20230087359A1, “CANNABINOID COMPOSITIONS AND METHODS OF USE THEREOF” (DAY THREE LABS MAN[…]., priority 2017, published 2023).

System: pentobarbital-induced sleep
Assay: Loss Of Righting Reflex (LORR) test, pentobarbital-induced sleep in mice
Type: in vivo, mouse (7-week-old male Balb/C mice)
[1] = LORR test, IP treatment 30 min before pentobarbital 30 or 40 mg/kg IP, diazepam 3 mg/kg

CN1C(=O)CN=C(c2ccccc2)c2cc(Cl)ccc21 [diazepam]
percentage of mice in treatment group that fell asleep after pentobarbital administration (Example 1, FIG. 3): 92% | percentage of subjects with a transient awakening (woke up once) during the sleep session (Example 1, FIG. 4): 25% | percentage of subjects with no transient awakenings during the sleep session (Example 1, FIG. 4): 75% | percentage of mice in treatment group that fell asleep after pentobarbital administration (response rate) (Example 2, FIG. 7): 86% | mean sleep duration [1]: 60 to 90 min | mean sleep onset [1]: 3 to 5 min
